Marks after values point to notes of the source that are not given here.
Legend:
[1] = test system: Pseudomonas aeruginosa PAO1 biofilm; experiment: Biofilm inhibition, crystal violet; type: cell-based; settings: P. aeruginosa PAO1, 24 h contact, 2–128 μg/mL tested
Method: (§1) The ability of MRSA and P. aeruginosa to form biofilms on propylene surfaces in the presence of bis-Args was determined. The two bacterial cells were kept in contact with the gemini surfactants at different concentrations from 2 to 128 μg/mL for 24 h. Then, the percentage of biofilm inhibition was determined.
(§2) Antibiofilm activity was assessed against biofilm-producing strains of methicillin-resistant Staphylococcus aureus (MRSA) ATCC 43300 and Pseudomonas aeruginosa PAO1. Biofilm inhibition and eradication capacities of the gemini surfactants were evaluated against adherent bacterial biofilms grown in 96-well microtiter plates. Bacteria were grown overnight in tryptic soy agar at 37 °C for 24 h. The bacteria were suspended in lysogeny broth with glucose (1%) at 1.5 × 10^8 CFU/mL.
(§3) Biofilm inhibition procedure: 100 μL of the gemini surfactant at different concentration values was added to each well in a 96-well microplate, then, 100 μL of the diluted bacterial suspension was added to the wells. Two-fold serial dilutions of the gemini surfactants to be tested were used (2–128 μg/mL). Microtiter plates were incubated at 37 °C for 24 h. Spent growth media was then discarded and biofilm was fixed with 150 μL methanol for 10 min. After the plates were air dried, the biofilms were stained with 50 μL of 0.1 of % crystal violet for 25 min. The plates were rinsed with water and then 150 μL of 96% ethanol containing 10% acetic acid was added to all 96-well plates to dissolve the remaining crystal violet-stained biofilm. The absorbance value was recorded at 570 nm. Each assay was performed at least three times and the results were averaged.

[2] = test system: methicillin-resistant Staphylococcus aureus (MRSA) ATCC 43300 biofilm; experiment: Biofilm inhibition, crystal violet; type: cell-based; settings: 24 h contact, 2–128 μg/mL tested
Method: as §1, §2, §3

[3] = target: porcine pancreatic elastase (Sus scrofa, UniProt P00772); experiment: Elastase inhibitory assay; type: biochemical; settings: 40 µL of 1000 µg/mL stock; EGCG 250 μM
Chain of porcine pancreatic elastase (P00772 27-266): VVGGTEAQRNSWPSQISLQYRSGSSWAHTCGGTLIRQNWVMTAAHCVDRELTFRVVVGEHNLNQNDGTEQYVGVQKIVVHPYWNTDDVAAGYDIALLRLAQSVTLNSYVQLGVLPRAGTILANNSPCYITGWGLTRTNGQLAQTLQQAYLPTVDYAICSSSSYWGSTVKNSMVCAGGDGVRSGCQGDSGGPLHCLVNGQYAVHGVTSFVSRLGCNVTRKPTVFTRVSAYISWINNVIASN
Method in brief: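 Porcine pancreatic elastase preincubated 15 min with diluted surfactant samples, then N-succinyl-(Ala)3-p-nitroanilide substrate added in Tris-HCl pH 8.0. Absorbance at 410 nm followed for 2 h; % inhibition from absorbance without versus with sample, in triplicate.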

[4] = test system: bovine hyaluronidase; experiment: Hyaluronidase inhibitory activity; type: biochemical; settings: negative inhibition values
Method in brief: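 Bovine hyaluronidase (7900 units/mL working solution, 0.1 M acetate pH 3.6) was mixed 1:1 with surfactant in 5% DMSO for 20 min at 37 °C, then with CaCl2 (12.5 mM) for 20 min, then sodium hyaluronate (1.2 mg/mL) for 40 min. The p-dimethylaminobenzaldehyde colour was read at 585 nm. % inhibition = (A1−A2)/A1×100.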

[5] = test system: squamous cell carcinoma (A431); experiment: Cell viability, NRU assay; type: cell-based; settings: A431, surfactant in solution at 35.6 µg/mL, 24 h
Method: The immortal human keratinocyte (HaCaT) and the squamous cell carcinoma (A431) were obtained from Celltec, University of Barcelona. The cells were grown in DMEM medium (4.5 g/L glucose) supplemented with 10% (v/v) FBS, 2 mM L-glutamine, 100 U/mL of penicillin and 100 μg/mL of streptomycin at 37 °C under 5% CO2. Cells were routinely cultured in 75 cm^2 culture flasks and were trypsinized using trypsin-EDTA when reached approximately 80% of confluence.
HaCaT cells (1 × 10^5 cells/mL) and A431 cells (5 × 10^4 cells/mL) were grown at the defined densities into the central 60 wells of a 96-well microplate. Cells were incubated for 24 h under 5% CO2 at 37 °C. The medium was then removed and the cells were incubated with the surfactants (100 μL), previously diluted 1:1 (v/v), reaching a concentration of […] in DMEM medium supplemented with 5% FBS using two different colorimetric methods for quantification, as follows.
The accumulation of the neutral red dye in the lysosomes of viable, undamaged cells constitutes the basis of the neutral red uptake (NRU) assay. After the cells were incubated for 24 h with the corresponding systems at 35.6 µg/mL, the medium was removed and the surfactants´ solutions were incubated for 3 h with the NRU dye solution (50 μg/mL) dissolved in the medium without FBS and phenol red (Lonza). Cells were then washed with sterile PBS, followed by the addition of 100 μL of a solution containing 50% ethanol absolute and 1% acetic acid in distilled water to extract the non-adhered dye. The microplates were then stirred for 5 min at 25 °C to promote the dissolution. Finally, the absorbance of the resulting solutions was measured at λ = 550 nm using a Bio-Rad 550 microplate reader (Hercules, CA, USA).

[6] = set-up: method as in doi:10.1021/la981295l; settings: cited from earlier work
[7] = set-up: method as in doi:10.1021/la981295l; settings: cited from earlier work; remark: listed apart in the source

CCCCCCCCCCCC(=O)NC(CCCNC(=N)N)C(=O)NCCCNC(=O)C(CCCNC(=N)N)NC(=O)CCCCCCCCCCC (stereo not drawn) [C3(LA)2, Bis (N^α-lauroyl arginine 1,3-propane) diamide]
concentration that inhibits biofilm formation [1]: 32 µg/mL
concentration that inhibits biofilm formation [2]: 32 µg/mL
anti-elastase activity (inhibition) [3]: 17%
increase of hyaluronidase enzymatic activity [4]: 48.3%
cytotoxicity, in words [5]: did not cause any apparent cytotoxicity
CMC (mM) Fluorescence [6]: 0.4 * mM
CMC (mM) Surface Tension [7]: 0.005 * mM
γcmc ([7]; surface tension at the cmc): 35 * mN/m
